“And” between values parts separate entries of the source, which are not always exact repeats. Equal values may be shown once.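 1) Cells in 96-well plates. 2) Compound, 48 h, 5 concentrations. 3) Linear interpolation between surrounding doses. 4) Unreached endpoint = highest concentration. GI50 = concentration required for 50% inhibition of growth. TGI: concentration producing complete growth inhibition.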
Experiments:
Assay in all cases: NCI-60 cell line screen, 48 h
CCRF-CEM leukemia = test system: CCRF-CEM leukemia
HCT-15 colon = test system: HCT-15 colon
HOP-62 NSCLC = test system: HOP-62 NSCLC
IGROV1 ovarian = test system: IGROV1 ovarian
NCI/ADR-RES ovarian = test system: NCI/ADR-RES ovarian
SK-MEL-2 melanoma = test system: SK-MEL-2 melanoma
SK-MEL-28 melanoma = test system: SK-MEL-28 melanoma
SK-MEL-5 melanoma = test system: SK-MEL-5 melanoma
SNB-19 CNS = test system: SNB-19 CNS
SNB-75 CNS = test system: SNB-75 CNS

Row | SMILES | GI50 (CCRF-CEM leukemia) | TGI (CCRF-CEM leukemia) | GI50 (HCT-15 colon) | TGI (HCT-15 colon) | GI50 (HOP-62 NSCLC) | TGI (HOP-62 NSCLC) | GI50 (IGROV1 ovarian) | TGI (IGROV1 ovarian) | GI50 (NCI/ADR-RES ovarian) | TGI (NCI/ADR-RES ovarian) | GI50 (SK-MEL-2 melanoma) | TGI (SK-MEL-2 melanoma) | GI50 (SK-MEL-28 melanoma) | TGI (SK-MEL-28 melanoma) | GI50 (SK-MEL-5 melanoma) | TGI (SK-MEL-5 melanoma) | GI50 (SNB-19 CNS) | TGI (SNB-19 CNS) | GI50 (SNB-75 CNS) | TGI (SNB-75 CNS)
1 | O=C1c2ccc3c4c(ccc(c24)C(=O)N1CCCNCc1ccccc1Cl)C(=O)N(CCCNCc1ccccc1Cl)C3=O | 0.215 µM | 50 µM | 0.148 µM | 0.62 µM | 0.277 µM | 1.02 µM | 0.275 µM | 1.63 µM | 0.142 µM | 0.456 µM | 0.415 µM | 1.28 µM | 0.776 µM | 1.48 µM | 0.399 µM | 1.02 µM | 0.314 µM | 0.987 µM | 0.716 µM | 1.47 µM
2 | COc1ccc(Cl)c(Nc2nc3ccccc3nc2NS(=O)(=O)c2cccc(NC(=O)C(C)(C)N)c2)c1 | 12.3 µM and > 10 µM | 31.9 µM and > 10 µM | 9.76 µM and 6.97 µM | 22 µM and > 10 µM | 4.66 µM and > 10 µM | 20 µM and > 10 µM | 1.41 µM and 0.686 µM | 6.63 µM and 4.86 µM | 12.1 µM and > 10 µM | 32.3 µM and > 10 µM | 14.9 µM and > 10 µM | 32.1 µM and > 10 µM | 7.93 µM and > 10 µM | 22.2 µM and > 10 µM | 12.1 µM and > 10 µM | 24.6 µM and > 10 µM | 12.4 µM and > 10 µM | 25.9 µM and > 10 µM | 1.35 µM and 0.481 µM | 10 µM and 6.6 µM
3 | COc1ccc(/C=C(\C(=O)NCc2cccnc2)S(=O)(=O)c2ccccc2)cc1OC | 2.26 µM | 15.8 µM | 2.85 µM | 11.7 µM | 3.51 µM | 11.4 µM | 2.22 µM | 11.3 µM | 18.2 µM | > 100 µM | 3.01 µM | 12.7 µM | 3.06 µM | 10.5 µM | 2.97 µM | 10.9 µM | 3.69 µM | 13.1 µM | 2.08 µM | 7.84 µM
4 | CC1=C(C(=O)N(C)c2ccc(Cl)c(C(=O)OC(C)C)c2)SCCO1 |  | > 100 µM |  | > 100 µM |  |  |  | > 100 µM |  | > 100 µM |  | > 100 µM |  | > 100 µM |  | > 100 µM |  | > 100 µM |  | 90.8 µM
5 | OCCn1cnc2c(SCc3ccccc3)ncnc21 |  | > 100 µM |  | > 100 µM |  | > 100 µM |  | > 100 µM |  | > 100 µM |  | > 100 µM |  | > 100 µM |  | > 100 µM |  | > 100 µM |  | > 100 µM
6 | Cc1cnc(CNC(=O)c2c(=O)c3ccc(N4CCCN(C)CC4)nc3n3c2sc2ccccc23)cn1 | 1.96 µM | 19.9 µM | 1.03 µM | 7.31 µM | 7.16 µM | 25.4 µM | 1.89 µM | 22.2 µM | 1.18 µM | 30.6 µM | 12.5 µM | 27 µM | 14.8 µM | 30.5 µM | 8.35 µM | 22.1 µM | 1.52 µM | 10.1 µM | 9.55 µM | 25.8 µM
7 | NC(=O)c1ccc(-c2nc(-c3ccc4c(c3)OCO4)c(-c3ccccn3)[nH]2)cc1 | > 25 µM and 38.4 µM | > 100 µM | > 25 µM and 23 µM | > 25 µM and 63.6 µM | > 25 µM and 43 µM | > 100 µM | > 25 µM and 34.2 µM | > 100 µM | > 25 µM and 32.3 µM | > 100 µM | > 25 µM and 35.8 µM | > 100 µM | > 25 µM and 51.1 µM | > 100 µM | > 25 µM and 15.1 µM | > 25 µM and 29.2 µM | > 25 µM and 54.6 µM | > 100 µM | > 16.5 µM and 21.3 µM | > 90.8 µM

From PubChem BioAssay (NCI)
